The values that follow come from patent US8367658B2, “Pyrazin-2-yl-pyridin-2-yl-amine and pyrazin-2-yl-pyrimidin-4-yl-amine compounds and their use” (Cancer Research Technology Limited, priority 2007, dated 2013).

“And” between values parts separate entries of the source, which are not always exact repeats. Equal values may be shown once.

The target of the experiment is T1, CHK1 (Homo sapiens, UniProt O14757).
T1 sequence (O14757 1-476): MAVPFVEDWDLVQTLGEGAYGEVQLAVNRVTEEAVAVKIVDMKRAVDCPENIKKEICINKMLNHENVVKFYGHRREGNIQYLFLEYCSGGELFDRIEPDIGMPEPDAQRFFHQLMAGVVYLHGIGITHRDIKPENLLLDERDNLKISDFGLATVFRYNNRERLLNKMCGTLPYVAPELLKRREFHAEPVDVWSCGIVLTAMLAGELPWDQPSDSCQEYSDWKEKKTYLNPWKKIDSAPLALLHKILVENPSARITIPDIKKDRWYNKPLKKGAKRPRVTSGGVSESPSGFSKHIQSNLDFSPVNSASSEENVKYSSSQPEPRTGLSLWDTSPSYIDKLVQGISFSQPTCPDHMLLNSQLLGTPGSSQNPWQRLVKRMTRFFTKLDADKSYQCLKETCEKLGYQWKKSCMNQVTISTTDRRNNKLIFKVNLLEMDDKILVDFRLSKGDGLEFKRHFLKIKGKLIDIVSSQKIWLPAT
In words: CHK1 kinase function inhibition assay (DELFIA, phosphorylation of a CDC25C peptide). The format is biochemical. The note with it: CHK1 1 nM, ATP 30 μM, 30 minutes at room temperature. In short, it runs like this:
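Phosphorylation of a CDC25C peptide detected by DELFIA with a phospho-specific antibody. Kinase reaction ran 30 min at room temperature, was stopped with EDTA buffer, then captured on neutravidin-coated plates for 1 h before time-resolved fluorescence read-out with enhancement solution.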
With `COC(=O)c1cnc(Nc2cnc(C#N)cn2)cc1N[C@H]1C[C@H]2CC[C@@H](C1)N2Cc1ccccc1` [Compound Y-030, Methyl 4-((1R,3r,5S)-8-benzyl-8-azabicyclo[3.2.1]octan-3-ylamino)-6-(5-cyanopyrazin-2-ylamino)nicotinate], the IC50 – broadly, the concentration at which inhibition is half-maximal – was in the range of 1000 to 10000 nM.

As to `CN1CCC(N(C)c2cc(Nc3cnc(C#N)cn3)ncc2Cl)CC1` [Compound Y-109, 5-(5-Chloro-4-(methyl(1-methylpiperidin-4-yl)amino)pyridin-2-ylamino)pyrazine-2-carbonitrile], the IC50 was 100 to 1000 nM.

`CN(CC1CCNCC1)c1cc(Nc2cnc(C#N)cn2)ncn1` [Compound Z-031, 5-(6-(Methyl(piperidin-4-ylmethyl)amino)pyrimidin-4-ylamino)pyrazine-2-carbonitrile]: the IC50 is 1000 to 10000 nM.

Compound `COC(=O)c1cnc(Nc2cnc(C#N)cn2)cc1NC1CC2CCC(C1)N2Cc1ccccn1` (stereo not shown) [Compound Y-080, Methyl 6-(5-cyanopyrazin-2-ylamino)-4-(8-(pyridin-2-ylmethyl)-8-azabicyclo[3.2.1]octan-3-ylamino)nicotinate] displayed an IC50 of at most 100 nM.

As to `N#Cc1cnc(Nc2cc(NC[C@H]3CCCNC3)c(N)cn2)cn1` [Compound Y-047, (S)-5-(5-Amino-4-(piperidin-3-ylmethylamino)pyridin-2-ylamino)pyrazine-2-carbonitrile], the IC50 is at most 100 nM.

For `COC/C=C/c1cnc(Nc2cnc(C#N)cn2)cc1NC1CCN(C)CC1` [Compound Y-123, (E)-5-(5-(3-methoxyprop-1-enyl)-4-(1-methylpiperidin-4-ylamino)pyridin-2-ylamino)pyrazine-2-carbonitrile], the IC50 is at most 100 nM.

`N#Cc1cnc(Nc2cc(NCC3CCCNC3)c(NC(=O)CCN3CCOCC3)cn2)cn1` (stereo not shown) [Compound Y-055, N-(6-(5-Cyanopyrazin-2-ylamino)-4-(piperidin-3-ylmethylamino)pyridin-3-yl)-3-morpholinopropanamide] came in with an IC50 of 100 to 1000 nM.

The compound `COc1ccc(NC(=O)c2cnc(Nc3cnc(C#N)cn3)cc2NCC2CCNCC2)cc1` [Compound Y-095, 6-(5-Cyanopyrazin-2-ylamino)-N-(4-methoxyphenyl)-4-(piperidin-4-ylmethylamino)nicotinamide] registered an IC50 of at most 100 nM.

Compound `CS(=O)(=O)c1cccc(-c2cnc(Nc3cnc(C#N)cn3)cc2NCC2CCNCC2)c1` [Compound Y-132, 5-(5-(3-(Methylsulfonyl)phenyl)-4-(piperidin-4-ylmethylamino)pyridin-2-ylamino)pyrazine-2-carbonitrile] came in with an IC50 of 100 to 1000 nM.

Compound `CN1CCC(Nc2cc(Nc3cnc(C#N)cn3)ncc2N)CC1` [Compound Y-007, 5-(5-Amino-4-(1-methylpiperidin-4-ylamino)pyridin-2-ylamino)pyrazine-2-carbonitrile] came in with an IC50 of at most 100 nM.

Regarding `N#Cc1cnc(Nc2cc(NCCCCN)ncn2)cn1` [Compound Z-016, 5-(6-(4-Aminobutylamino)pyrimidin-4-ylamino)pyrazine-2-carbonitrile], the IC50 is ≤ 1000 nM and 600 nM and 100 to 1000 nM.

In turn, `CN1CCC(Nc2cc(Nc3cnc(C#N)cn3)ncc2[N+](=O)[O-])CC1` [Compound Y-040, 5-(4-(1-Methylpiperidin-4-ylamino)-5-nitropyridin-2-ylamino)pyrazine-2-carbonitrile] came in with an IC50 of at most 100 nM.

Compound `COc1ccccc1NC(=O)c1cnc(Nc2cnc(C#N)cn2)cc1NCC1CCNCC1` [Compound Y-097, 6-(5-Cyanopyrazin-2-ylamino)-N-(2-methoxyphenyl)-4-(piperidin-4-ylmethylamino)nicotinamide] had an IC50 of 100 to 1000 nM.

As to `N#Cc1cnc(Nc2cc(NC3CCNCC3)c(N)cn2)cn1` [Compound Y-005, 5-(5-Amino-4-(piperidin-4-ylamino)pyridin-2-ylamino)pyrazine-2-carbonitrile], the IC50 was ≤ 1000 nM and 100 to 1000 nM.

The compound `COc1ccc(-c2cnc(Nc3cnc(C#N)cn3)cc2NCC2CCNCC2)cc1` [Compound Y-126, 5-(5-(4-Methoxyphenyl)-4-(piperidin-4-ylmethylamino)pyridin-2-ylamino)pyrazine-2-carbonitrile] had an IC50 of at most 100 nM.

In turn, `COc1ccc(-c2cnc(Nc3cnc(C#N)cn3)cc2NC2CCNCC2)cc1` [Compound Y-122, 5-(5-(4-Methoxyphenyl)-4-(piperidin-4-ylamino)pyridin-2-ylamino)pyrazine-2-carbonitrile] gave an IC50 of at most 100 nM.
